According to patent EP0844879B1, “PHARMACEUTICAL CO[…] D[…] IN […] IMMUNE RESPONSE” (LA[…] SPINDLER, priority 1995, dated 1996):
“Also recorded” adds a separate entry of the source.

Test system: vaccin monovalent de la grippe (vaccin NIB16, souche A) (HA)
Experiment: Immunisation of mice with monovalent influenza vaccine, steroid as adjuvant; total anti-HA IgG in serum by enzyme immunoassay
Assay type: in vivo, souris BALB/C
Settings: aged mice compared with young mice; steroid given with HA
Procedure: Un protocole d'immunisation contre le vaccin monovalent de la grippe (vaccin NIB16, souche A) (HA), est utilisé pour tester l'effet adjuvant du dérivé 3β-palmitoyl de la 7αOH-DHEA mis en solution à 10 mg/ml dans le DMSO.
Trois lots de 5 souris BALB/C âgées de 6 semaines (jeunes) et trois lots de 5 souris BALB/C âgées de 90 semaines (âgées) subissent le premier jour une injection sous-cutanée de 0,5 ml de sérum physiologique contenant : • soit 8 µg de HA + 1,8 µmole (0,78 mg/kg) de 3β-palmitoyl-7αOH-DHEA (lot 1) • soit 8 µg de HA + 1,8 µmole (0,56 mg/kg) de 7αOH-DHEA (lot 2) • soit 8 µg de HA (lot 3) Après 28 jours, chaque souris de chaque lot subit un rappel, les injections décrites étant répétées pour chaque lot. Après 38 jours, chaque souris de chaque lot est sacrifiée et le sang prélevé. Les IgG totales anti-HA sont mesurées dans chaque sérum par une méthode immunoenzymatique. […] Tableau 1

SMILES	réponse immunitaire des souris âgées (result in words)
C[C@]12CC[C@H](O)CC1=C[C@@H](O)[C@@H]1[C@@H]2CC[C@]2(C)C(=O)CC[C@@H]12 [7αOH-DHEA, reference compound]	cette réponse n'est pas obtenue
CCCCCCCCCCCCCCCC(=O)O[C@H]1CC[C@@]2(C)C(=C[C@@H](O)[C@@H]3[C@@H]2CC[C@]2(C)C(=O)CC[C@@H]32)C1 [3β-palmitoyl-7αOH-DHEA]	rétablit la réponse immunitaire des souris âgées à un niveau proche de celui des souris jeunes; also recorded: a un effet sur la réponse immunitaire des souris âgées comparable à celui obtenu chez les souris jeunes
